Measurements from the supplement of paper PMC11208160.

Assay: recombinant barcode read abundance after kanamycin selection (control-corrected) (log10(CPM+1)); higher = more efficient recombination; sequences stand for … in AGTGCAGAGAAAATCGGCCAGTTTTCTCTGCCTGCAGTCCGCATGCCGT…AGATTTATGCAGCGGACTGCCTTTCTCCCAAAGTGATAAACCGGACAGTATCATGGACCGGTTTTCCCGGTAATCCGTATTTGCAAGGTTGGTTTCACT; site = the 11-nt target
Outline: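 A vector carrying a T7-inducible recombinase and the last 73 bp of the bridge RNA received, by Gibson cloning, oligos encoding a promoter, target, barcode and the first 104 bridge RNA bases under J23119. The pooled constructs entered E. coli together with a donor plasmid by electroporation. Selection used chloramphenicol/ampicillin/kanamycin with 0.1 mM IPTG, with chloramphenicol/ampicillin LB agar as the control, each in two replicates. Recombination efficiency is the averaged, control-corrected counts-per-million of barcodes at recombinant junctions, reported as log10(CPM+1).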
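Further: IS621 recombinase and bridge RNA in Escherichia coli cells.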

Row | Sequence | recombinant barcode read abundance (log10)
1 | GGTCGAACTTGGGTTCTAACCTGTTGCCT (site GGTCCAACTAG) | 0.127
2 | GGTCGAACTTGGGTTCTAACCTGTTGCCT (site GGTCGAACTAG) | 0.624
3 | GGTCGAACTTGGGTTCTAACCTGTTGCCT (site GGTCTAACTAG) | 0.0343
4 | GGTCGCTCTTGGGTTCTAACCTGTTGCCT (site GGACGCTCTAG) | 0.0961
5 | GGTCGCTCTTGGGTTCTAACCTGTTGCCT (site GGTCGCTCTAG) | 1.35
6 | GGTGACTCTTGGGTTCTAACCTGTTGCCT (site GGTGACTCTAG) | 1.15
7 | GGTGACTCTTGGGTTCTAACCTGTTGCCT (site GGTGGATCTAG) | 0.114
8 | GGTGCTCCTTGGGTTCTAACCTGTTGCAA (site GGTGCTCCTAT) | 0.0718
9 | GGTGCTCCTTGGGTTCTAACCTGTTGCAA (site GGTGCTCCTCT) | 0.0634
10 | GGTGCTCCTTGGGTTCTAACCTGTTGCAA (site GGTGCTCCTGT) | 0.0326
11 | GGTGCTCCTTGGGTTCTAACCTGTTGCAA (site GGTGCTCCTTT) | 0.3
12 | GGTGCTCCTTGGGTTCTAACCTGTTGCAG (site GGTGCTCCTAT) | 0.0917
13 | GGTGCTCCTTGGGTTCTAACCTGTTGCAG (site GGTGCTCCTCT) | 0.88
14 | GGTGCTCCTTGGGTTCTAACCTGTTGCAG (site GGTGCTCCTGT) | 0
15 | GGTGCTCCTTGGGTTCTAACCTGTTGCAG (site GGTGCTCCTTT) | 0.0255
16 | GGTGCTCCTTGGGTTCTAACCTGTTGCAT (site GGTGCTCCTAT) | 0.914
17 | GGTGCTCCTTGGGTTCTAACCTGTTGCAT (site GGTGCTCCTCT) | 0.017
18 | GGTGCTCCTTGGGTTCTAACCTGTTGCAT (site GGTGCTCCTGT) | 0.0976
19 | GGTGCTCCTTGGGTTCTAACCTGTTGCAT (site GGTGCTCCTTT) | 0.0242
20 | GGTGGGACTTGGGTTCTAACCTGTTGCAC (site AAATCTGCTAG) | 0.259
21 | GGTGGGACTTGGGTTCTAACCTGTTGCAC (site GGTGGGACTGT) | 1.95
22 | GGTTCATCTTGGGTTCTAACCTGTTGCCA (site GGCTCCTCTTG) | 0.0691

Row | Sequence | recombinant barcode read abundance (log10)
23 | GGTTCATCTTGGGTTCTAACCTGTTGCCA (site GGTTCATCTTG) | 0.0738
24 | GGTTCCTCTTGGGTTCTAACCTGTTGCGG (site GGTTCCTCTCC) | 0.933
25 | GGTTCCTCTTGGGTTCTAACCTGTTGCGG (site TACCTAACTAA) | 0.118
26 | GGTTGACCTTGGGTTCTAACCTGTTGCAT (site GGTTCACCTCT) | 0.226
27 | GGTTGACCTTGGGTTCTAACCTGTTGCAT (site GGTTGACCTAT) | 0.913
28 | GTAACCTCTTGGGTTCTAACCTGTTGCCC (site GTAACCTCTAG) | 0.928
29 | GTAACCTCTTGGGTTCTAACCTGTTGCCC (site GTAACCTCTCG) | 0.179
30 | GTAACCTCTTGGGTTCTAACCTGTTGCCC (site GTAACCTCTGG) | 1.97
31 | GTAACCTCTTGGGTTCTAACCTGTTGCCC (site GTAACCTCTTG) | 0.128
32 | GTAACTACTTGGGTTCTAACCTGTTGCAC (site CTAATTACTGT) | 0.0302
33 | GTAACTACTTGGGTTCTAACCTGTTGCAC (site GTAACTACTGT) | 0.926
34 | GTAACTACTTGGGTTCTAACCTGTTGCGG (site GTAACTACTCC) | 2.1
35 | GTAACTACTTGGGTTCTAACCTGTTGCGG (site GTCACTACTAC) | 0.0797
36 | GTAACTCCTTGGGTTCTAACCTGTTGCCT (site GTAACTCCTAG) | 0.487
37 | GTAACTCCTTGGGTTCTAACCTGTTGCCT (site TGAACTCCTAG) | 0.041
38 | GTAACTGCTTGGGTTCTAACCTGTTGCCT (site GTAAATGCTAG) | 0.373
39 | GTAACTGCTTGGGTTCTAACCTGTTGCCT (site GTAACTGCTAG) | 0.941
40 | GTAACTGCTTGGGTTCTAACCTGTTGCCT (site GTAAGTGCTAG) | 0.084
41 | GTAACTGCTTGGGTTCTAACCTGTTGCCT (site GTAATTGCTAG) | 0.0184
42 | GTAAGGACTTGGGTTCTAACCTGTTGCTT (site GTAAGAACTAA) | 0.738
43 | GTAAGGACTTGGGTTCTAACCTGTTGCTT (site GTAAGCACTAA) | 0.156
44 | GTAAGGACTTGGGTTCTAACCTGTTGCTT (site GTAAGGACTAA) | 1.16

Row | Sequence | recombinant barcode read abundance (log10)
45 | GTAAGGACTTGGGTTCTAACCTGTTGCTT (site GTAAGTACTAA) | 0.0109
46 | GTAAGTACTTGGGTTCTAACCTGTTGCCA (site ATAAGTCCTTG) | 0.063
47 | GTAAGTACTTGGGTTCTAACCTGTTGCCA (site GTAAGTACTTG) | 1.54
48 | GTAATTACTTGGGTTCTAACCTGTTGCCT (site GTAATTACTAG) | 0.441
49 | GTAATTACTTGGGTTCTAACCTGTTGCCT (site TACGCACCTTC) | 0.0355
50 | GTACAGCCTTGGGTTCTAACCTGTTGCCT (site GTACAGCCTAG) | 1.35
51 | GTACAGCCTTGGGTTCTAACCTGTTGCCT (site GTACCGCCTAG) | 0.0712
52 | GTACAGCCTTGGGTTCTAACCTGTTGCCT (site GTACGGCCTAG) | 0.0431
53 | GTACAGCCTTGGGTTCTAACCTGTTGCCT (site GTACTGCCTAG) | 0.155
54 | GTACATCCTTGGGTTCTAACCTGTTGCGT (site AAGGTCACTCA) | 0.0803
55 | GTACATCCTTGGGTTCTAACCTGTTGCGT (site GTACATCCTAC) | 2.13
56 | GTACGCGCTTGGGTTCTAACCTGTTGCGT (site CTACGCGCTAA) | 0.392
57 | GTACGCGCTTGGGTTCTAACCTGTTGCGT (site GTACGCGCTAC) | 1.14
58 | GTACGCTCTTGGGTTCTAACCTGTTGCTT (site GGAAGCTCTAA) | 0
59 | GTACGCTCTTGGGTTCTAACCTGTTGCTT (site GTACGCTCTAA) | 0.218
60 | GTACGGTCTTGGGTTCTAACCTGTTGCAT (site GTACGATCTTT) | 0.107
61 | GTACGGTCTTGGGTTCTAACCTGTTGCAT (site GTACGGTCTAT) | 2
62 | GTACGTCCTTGGGTTCTAACCTGTTGCTT (site GTACGTCCTAA) | 0.777
63 | GTACGTCCTTGGGTTCTAACCTGTTGCTT (site GTACGTCCTAC) | 0.143
64 | GTACGTCCTTGGGTTCTAACCTGTTGCTT (site GTACGTCCTAG) | 0.299
65 | GTACGTCCTTGGGTTCTAACCTGTTGCTT (site GTACGTCCTAT) | 0.374
66 | GTACTGCCTTGGGTTCTAACCTGTTGCCT (site GTACAGCCTAG) | 0.52

Row | Sequence | recombinant barcode read abundance (log10)
67 | GTACTGCCTTGGGTTCTAACCTGTTGCCT (site GTACCGCCTAG) | 0.366
68 | GTACTGCCTTGGGTTCTAACCTGTTGCCT (site GTACGGCCTAG) | 0.531
69 | GTACTGCCTTGGGTTCTAACCTGTTGCCT (site GTACTGCCTAG) | 1.28
70 | GTAGACACTTGGGTTCTAACCTGTTGCCG (site GTAAACACTCT) | 0.142
71 | GTAGACACTTGGGTTCTAACCTGTTGCCG (site GTAGACACTCG) | 1.28
72 | GTAGACCCTTGGGTTCTAACCTGTTGCCT (site ATAGACCCTAG) | 2.3
73 | GTAGACCCTTGGGTTCTAACCTGTTGCCT (site CTAGACCCTAG) | 1.16
74 | GTAGACCCTTGGGTTCTAACCTGTTGCCT (site GTAGACCCTAG) | 2.5
75 | GTAGACCCTTGGGTTCTAACCTGTTGCCT (site TTAGACCCTAG) | 1.85
76 | GTAGACCCTTGGGTTCTAACCTGTTGCGT (site GTAGACCCTAC) | 3.46
77 | GTAGACCCTTGGGTTCTAACCTGTTGCGT (site GTAGACCCTCA) | 0.309
78 | GTAGAGTCTTGGGTTCTAACCTGTTGCCT (site GAAGAGTCTAG) | 2.36
79 | GTAGAGTCTTGGGTTCTAACCTGTTGCCT (site GCAGAGTCTAG) | 1.94
80 | GTAGAGTCTTGGGTTCTAACCTGTTGCCT (site GGAGAGTCTAG) | 0.239
81 | GTAGAGTCTTGGGTTCTAACCTGTTGCCT (site GTAGAGTCTAG) | 2.84
82 | GTAGCAGCTTGGGTTCTAACCTGTTGCTC (site CTAGTAGCTGA) | 0.146
83 | GTAGCAGCTTGGGTTCTAACCTGTTGCTC (site GTAGCAGCTGA) | 1.4
84 | GTAGCGACTTGGGTTCTAACCTGTTGCCT (site ATAGGGACTAG) | 0.149
85 | GTAGCGACTTGGGTTCTAACCTGTTGCCT (site GTAGCGACTAG) | 1.43
86 | GTAGGAACTTGGGTTCTAACCTGTTGCTG (site CGGCTGTCTAG) | 0.0122
